Measured values from patent publication US20220220095A1, “N-((HETEROARYL)METHYL)-1-TOSYL-1H-PYRAZOLE-3-CARBOXAMIDE DERIVATIVES AS Kv3 POTASSIUM CHANNEL ACTIVATORS FOR TREATING NEUROLOGICAL AND [sequence] DISORDERS” (H. Lundbeck A/S, priority 2019, published 2022).

Target: T1, hKv3.1b (Homo sapiens, UniProt P48547)
T1 construct: expressed in transfected cells
T1 sequence (P48547 1-585 isoform P48547-2): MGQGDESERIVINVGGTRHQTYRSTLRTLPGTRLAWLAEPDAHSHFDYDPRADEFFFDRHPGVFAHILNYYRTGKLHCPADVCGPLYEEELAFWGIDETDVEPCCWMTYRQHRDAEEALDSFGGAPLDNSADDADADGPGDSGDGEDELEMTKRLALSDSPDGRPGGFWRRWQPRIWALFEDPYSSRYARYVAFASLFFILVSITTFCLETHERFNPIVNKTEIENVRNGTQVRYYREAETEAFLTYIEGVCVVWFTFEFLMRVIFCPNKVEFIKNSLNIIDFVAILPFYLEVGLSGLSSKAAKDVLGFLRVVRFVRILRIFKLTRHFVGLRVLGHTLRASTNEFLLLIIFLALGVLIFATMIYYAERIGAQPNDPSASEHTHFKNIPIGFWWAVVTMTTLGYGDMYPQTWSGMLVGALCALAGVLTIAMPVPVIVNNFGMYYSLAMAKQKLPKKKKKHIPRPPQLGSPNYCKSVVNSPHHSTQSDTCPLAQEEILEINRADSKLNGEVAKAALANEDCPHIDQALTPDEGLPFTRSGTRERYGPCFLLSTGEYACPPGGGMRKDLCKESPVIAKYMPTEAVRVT
Test: Automated whole-cell patch-clamp (QPatch-16x) on HEK-293 cells stably expressing hKv3.1b: shift of voltage threshold for channel activation
Assay type: cell-based
Conditions: HEK-293 hKv3.1b; for ECdelta5mV: concentration needed to shift the threshold 5 mV, read out from fitted concentration response curve; for Max Delta threshold: maximum absolute shift of activation threshold to more hyperpolarized potentials at the tested concentrations (0.37, 1.11, 3.33, 10, 30 μM)
Protocol: HEK-293 cells stably expressing hKv3.1b was used for the experiments. Cells were cultured in DMEM medium supplemented with 10% Fetal Bovine Serum, 100 ug/mL Geneticidin and 100 u/mL Penicillin/Streptomycin (all from Gibco). Cells were grown to 80-90% confluency at 37° C. and 5% CO2. On the day of the experiment the cells were detached from the tissue culture flasks by Detachin and resuspended in serum free medium containing 25 mM HEPES and transferred to the cell hotel of the QPatch. The cells were used for experiments 0-5 hours after detachment.
Patch-clamp recordings were performed using the automated recording system QPatch-16x (Sophion Bioscience, Denmark). Cells were centrifuged, SFM removed and the cells were resuspended in extracellular buffer containing (in mM): 145 NaCl, 4 KCl, 1 MgCl2, 2 CaCl2, 10 HEPES and 10 glucose (added fresh on the day of experiment); pH 7.4 adjusted with NaOH, 305 mOsm adjusted with sucrose.
Single cell whole-cell recordings were carried out using an intracellular solution containing (in mM): 120 KCl, 32.25/10 KOH/EGTA, 5.374 CaCl2, 1.75 MgCl2, 10 HEPES, 4 Na2ATP (added fresh on the day), pH 7.2 adjusted with KOH, […] adjusted with sucrose. Cell membrane potentials were held at −80 mV and currents were evoked by voltage steps (200 ms duration) from −70 mV to +10 mV (in 10 mV increments).
Leak subtraction protocol was applied at −33% of the sweep amplitude, and serial resistance values were constantly monitored.
Any cell where serial resistance exceeded 25 MOhm, membrane resistance less than 200 MOhm or current size at −10 mV less than 200 pA was eliminated from the subsequent analysis.
Data analysis was performed using Sophion's QPatch assay software in combination with Microsoft Excel™ (Redmond, Wash., USA).
Current voltage relationships were plotted from the peak current at the individual voltage steps normalized to the vehicle addition at 10 mV. The voltage threshold for channel activation was defined as 5% activation of the peak current at 10 mV in presence of vehicle. The activity of the compounds was described as the ability to shift this current voltage relationship to more hyperpolarized potentials and is given as the maximum absolute shift possible at the tested concentrations (0.37, 1.11, 3.33, 10, 30 μM). Concentration response curves were plotted from the threshold shift at the individual concentrations and were fitted excel fit model 205 sigmodal dose-response model (fit=A+((B−A)/1+((C/x)^D)))), where A is the minimum value, B the maximum value, C the EC50 value and D the slope of the curve. The concentration needed to shift the threshold 5 mV was readout from this curve (ECdelta 5 mV).

ECdelta5mV [nM]	Max Delta threshold [mV]	Structure (SMILES)
2000	21	COc1ccc(S(=O)(=O)n2ccc(C(=O)NCc3ccc(C)cn3)n2)cc1 [Compound 40, 1-(4-methoxybenzene-1-sulfonyl)-N-[(5-methylpyridin-2-yl)methyl]-1H-pyrazole-3-carboxamide]
1200	25	COc1ccc(S(=O)(=O)n2ccc(C(=O)NCc3cnn(C)c3)n2)cc1 [Compound 41, 1-(4-methoxybenzene-1-sulfonyl)-N-[(1-methyl-1H-pyrazol-4-yl)methyl]-1H-pyrazole-3-carboxamide]
2000	18	COc1ccc(S(=O)(=O)n2ccc(C(=O)NCc3nc(C)no3)n2)cc1 [Compound 42, 1-(4-methoxybenzene-1-sulfonyl)-N-[(3-methyl-1,2,4-oxadiazol-5-yl)methyl]-1H-pyrazole-3-carboxamide]
1600	25	COc1ccc(S(=O)(=O)n2ccc(C(=O)NCc3cnccn3)n2)cc1 [Compound 43, 1-(4-methoxybenzene-1-sulfonyl)-N-[(pyrazin-2-yl)methyl]-1H-pyrazole-3-carboxamide]
1400	25	COc1ccc(S(=O)(=O)n2ccc(C(=O)NCc3ccn(C)n3)n2)cc1 [Compound 44, 1-(4-methoxybenzene-1-sulfonyl)-N-[(1-methyl-1H-pyrazol-3-yl)methyl]-1H-pyrazole-3-carboxamide]
2800	15	Cc1ccc(S(=O)(=O)n2ccc(C(=O)NCc3ncco3)n2)cc1 [Compound 45, 1-(4-methylbenzene-1-sulfonyl)-N-[(1,3-oxazol-2-yl)methyl]-1H-pyrazole-3-carboxamide]
1800	22	Cc1ccc(S(=O)(=O)n2ccc(C(=O)NCc3cn(C)nn3)n2)cc1 [Compound 46, 1-(4-methylbenzene-1-sulfonyl)-N-[(1-methyl-1H-1,2,3-triazol-4-yl)methyl]-1H-pyrazole-3-carboxamide]
3300	16	Cc1ccc(S(=O)(=O)n2ccc(C(=O)NCc3nncs3)n2)cc1 [Compound 47, 1-(4-methylbenzene-1-sulfonyl)-N-[(1,3,4-thiadiazol-2-yl)methyl]-1H-pyrazole-3-carboxamide]
1500	24	Cc1ccc(S(=O)(=O)n2ccc(C(=O)NCc3nc(C)no3)n2)cc1 [Compound 48, 1-(4-methylbenzene-1-sulfonyl)-N-[(3-methyl-1,2,4-oxadiazol-5-yl)methyl]-1H-pyrazole-3-carboxamide]
2000	19	Cc1ccc(S(=O)(=O)n2ccc(C(=O)NCc3cocn3)n2)cc1 [Compound 49, 1-(4-methylbenzene-1-sulfonyl)-N-[(1,3-oxazol-4-yl)methyl]-1H-pyrazole-3-carboxamide]
1700	24	Cc1ccc(S(=O)(=O)n2ccc(C(=O)NCc3cnc(C)nc3)n2)cc1 [Compound 50, 1-(4-methylbenzene-1-sulfonyl)-N-[(2-methylpyrimidin-5-yl)methyl]-1H-pyrazole-3-carboxamide]
3300	16	Cc1ccc(S(=O)(=O)n2ccc(C(=O)NCc3cnoc3)n2)cc1 [Compound 51, 1-(4-methylbenzene-1-sulfonyl)-N-[(1,2-oxazol-4-yl)methyl]-1H-pyrazole-3-carboxamide]
1500	16	Cc1ccc(S(=O)(=O)n2ccc(C(=O)NCc3cscn3)n2)cc1 [Compound 52, 1-(4-methylbenzene-1-sulfonyl)-N-[(1,3-thiazol-4-yl)methyl]-1H-pyrazole-3-carboxamide]
1900	20	Cc1ccc(S(=O)(=O)n2ccc(C(=O)NCc3cn(C)cn3)n2)cc1 [Compound 53, 1-(4-methylbenzene-1-sulfonyl)-N-[(1-methyl-1H-imidazol-4-yl)methyl]-1H-pyrazole-3-carboxamide]
2400	21	Cc1ccc(S(=O)(=O)n2ccc(C(=O)NCc3cncnc3)n2)cc1 [Compound 54, 1-(4-methylbenzene-1-sulfonyl)-N-[(pyrimidin-5-yl)methyl]-1H-pyrazole-3-carboxamide]
1800	20	Cc1ccc(S(=O)(=O)n2ccc(C(=O)NCc3ccno3)n2)cc1 [Compound 55, 1-(4-methylbenzene-1-sulfonyl)-N-[(1,2-oxazol-5-yl)methyl]-1H-pyrazole-3-carboxamide]
4900	13	Cc1ccc(S(=O)(=O)n2ccc(C(=O)NCc3ncon3)n2)cc1 [Compound 57, 1-(4-methylbenzene-1-sulfonyl)-N-[(1,2,4-oxadiazol-3-yl)methyl]-1H-pyrazole-3-carboxamide]
2000	17	Cc1ccc(S(=O)(=O)n2ccc(C(=O)NCc3ccon3)n2)cc1 [Compound 58, 1-(4-methylbenzene-1-sulfonyl)-N-[(1,2-oxazol-3-yl)methyl]-1H-pyrazole-3-carboxamide]
3000	14	Cc1ccc(S(=O)(=O)n2ccc(C(=O)NCc3nccs3)n2)cc1 [Compound 59, 1-(4-methylbenzene-1-sulfonyl)-N-[(1,3-thiazol-2-yl)methyl]-1H-pyrazole-3-carboxamide]
2900	18	Cc1ccc(S(=O)(=O)n2ccc(C(=O)NCc3ncn(C)n3)n2)cc1 [Compound 60, 1-(4-methylbenzene-1-sulfonyl)-N-[(1-methyl-1H-1,2,4-triazol-3-yl)methyl]-1H-pyrazole-3-carboxamide]
2000	19	Cc1ccc(S(=O)(=O)n2ccc(C(=O)NCc3nc(C)cs3)n2)cc1 [Compound 61, 1-(4-methylbenzene-1-sulfonyl)-N-[(4-methyl-1,3-thiazol-2-yl)methyl]-1H-pyrazole-3-carboxamide]
1600	25	Cc1ccc(S(=O)(=O)n2ccc(C(=O)NCc3cnn(C)c3)n2)cc1 [Compound 62, 1-(4-methylbenzene-1-sulfonyl)-N-[(1-methyl-1H-pyrazol-4-yl)methyl]-1H-pyrazole-3-carboxamide]
1600	24	COc1ccc(S(=O)(=O)n2ccc(C(=O)NCc3cccnc3)n2)cc1 [Compound 64, 1-(4-methoxyphenyl)sulfonyl-N-(3-pyridylmethyl)pyrazole-3-carboxamide]
3600	25	Cc1cnc(CNC(=O)c2ccn(S(=O)(=O)c3ccc(OC(F)F)cc3)n2)cn1 [Compound 65, 1-[4-(difluoromethoxy)phenyl]sulfonyl-N-[(5-methylpyrazin-2-yl)methyl]pyrazole-3-carboxamide]
2400	31	Cc1cnc(CNC(=O)c2ccn(S(=O)(=O)c3ccc(F)cc3C)n2)cn1 [Compound 66, 1-(4-fluoro-2-methyl-phenyl)sulfonyl-N-[(5-methylpyrazin-2-yl)methyl]pyrazole-3-carboxamide]
